Structures can show the parent of a compound that is named as a salt.
Tested on: peripheral blood lymphocyte count
Test: Evaluation of peripheral blood lymphocyte count-decreasing effect in mice
Format: in vivo
Settings: male BALB/cAnNCrj mice, intraperitoneally administered, 24 hr after administration

First: CCCCCCCOc1ccc(CCC(N)(CO)CO)cc1C.Cl [comparison compound 1-7, 2-amino-2-[2-(4-heptyloxy-3-methylphenyl)ethyl]propane-1,3-diol Hydrochloride, reference compound]
Second: CCCCCCCOc1ccc(CCC(N)(CO)CO)cc1C(F)(F)F.Cl [compound 1-3, 2-amino-2-[2-(4-heptyloxy-3-trifluoromethylphenyl)ethyl]propane-1,3-diol Hydrochloride]
The “mouse peripheral blood lymphocyte count-decreasing effect, ED50 value (dose necessary for 50% reduction of the lymphocyte count of vehicle group as 100%)” value of the first is higher: 0.64 mg/kg body weight for the first, 0.04 mg/kg body weight for the second.

`CCCCCCCOc1ccc(CCC(C)(N)CO)cc1C(F)(F)F.Cl` (stereo not drawn) [compound 13-6, 2-amino-4-(4-heptyloxy-3-trifluoromethylphenyl)-2-methylbutanol Hydrochloride] and `CCCCCCCOc1ccc(CC[C@@](C)(N)CO)cc1C(F)(F)F.Cl` [compound 15-3, (R)-2-amino-4-(4-heptyloxy-3-trifluoromethylphenyl)-2-methylbutanol Hydrochloride] are the same in “mouse peripheral blood lymphocyte count-decreasing effect, ED50 value (dose necessary for 50% reduction of the lymphocyte count of vehicle group as 100%)” value: 0.02 mg/kg body weight for the first, 0.02 mg/kg body weight for the second.

With `CCCCCCCOc1ccc(/C=C/C(N)(CO)CO)cc1C(F)(F)F` [compound 28-6, (E)-2-amino-2-[2-(4-heptyloxy-3-trifluoromethylphenyl)vinyl]propane-1,3-diol Hydrochloride] the “mouse peripheral blood lymphocyte count-decreasing effect, ED50 value (dose necessary for 50% reduction of the lymphocyte count of vehicle group as 100%)” value was 0.03 mg/kg body weight.

Tested on: not listed separately
Test: Effect on heart rate in rat telemetry
Format: in vivo, Sprague-Dawley (IGS) rats
Settings: orally administered, up to the dose of 30 mg/kg body weight, measured from 24 hr before to 72 hr after administration
Procedure: Effect on Heart Rate in Rat Telemetry
Male Sprague-Dawley (IGS) rats were anesthetized by intraperitoneal administration of Nembutal (manufactured by DAINIPPON PHARMACEUTICAL CO., LTD.), a pressure sensor connected to a telemetry transmitter (TL11M2-C50-PTX, manufactured by Data Sciences International) was inserted into the abdominal artery, and the transmitter was subcutaneously dwelled in the abdomen. The data of blood pressure and heart rate were recorded by an analysis soft (Dataquest A.R.T., Data Science) via a receiver (RPC-1, manufactured by Data Sciences International). When 10 days to 2 weeks elapsed from the surgery, recovery of heart rate circadian rhythm was confirmed, and the rats were subjected to the experiment. The compound of the present invention was suspended in 0.5% hydroxypropylmethylcellulose (manufactured by Shin-Etsu Chemical Co., Ltd.) and orally administered. The heart rate was measured from 24 hr before the administration to 72 hr after the administration.

For `CCCCCCCOc1ccc(CCC(N)(CO)CO)cc1C(F)(F)F.Cl` [compound 1-3, 2-amino-2-[2-(4-heptyloxy-3-trifluoromethylphenyl)ethyl]propane-1,3-diol Hydrochloride], the “effect on heart rate of the rat” value was “did not affect the heart rate”.

Reference: patent publication US8809304B2, “Amine compound and use thereof for medical purposes” (Mitsubishi Tanabe Pharma Corporation, priority 2005, dated 2014)
